In patent US9133115B2 (ACHILLION PHARMACEUTICALS, INC., priority 2008, dated 2015) one finds EC50 data, which are given here for nine compounds.

The test system of this experiment is HCV replicon. In words: HCV replicon replication assay (NPT ELISA) in Huh-7 replicon-containing cells. Format: cell-based. To be noted: Hepatitis C virus, 72 h; HCV replicon in Huh-7 cells, three days incubation; read-out: EC50. The method in brief:
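Huh-7 cells carrying a bicistronic HCV replicon (HCV-IRES-neo, EMCV-IRES-driven NS3–NS5B, 3′-NTR) were seeded at 6000-7500 cells/well, grown 24 h to 60-70% confluence, then treated with graded compound concentrations. Replication was read as NPT level by capture ELISA (rabbit anti-NPTII, Eu-N1 secondary); interferon alpha served as positive control.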
As to `C=C[C@@H]1C[C@]1(NC(=O)[C@@H]1C[C@@H](Oc2cc(-c3csc(NC(C)C)n3)nc3cc(OC)ccc23)CN1C(=O)[C@@H](CC(=O)N1CCOCC1)C(C)(C)C)C(=O)NS(=O)(=O)C1CC1` [Compound 100, (2S,4R)-1-((S)-2-tert-butyl-4-morpholino-4-oxobutanoyl)-N-((1R,2S)-1-(cyclopropylsulfonyl-carbamoyl)-2-vinylcyclopropyl)-4-(2-(2-(isopropyl-amino)thiazol-4-yl)-7-methoxyquinolin-4-yloxy)pyrrolidine-2-carboxamide], the EC50 is below 1 µM. To `C=C[C@@H]1C[C@]1(NC(=O)[C@@H]1C[C@@H](Oc2nc(-c3ccccn3)nc3ccsc23)CN1C(=O)[C@@H](CC(=O)N1CCCCC1)C(C)(C)C)C(=O)NS(=O)(=O)C1CC1` [Compound 122, (2S,4R)-1-((S)-2-tert-butyl-4-oxo-4-(piperidin-1-yl)butanoyl)-N-((1R,2S)-1-(cyclopropylsulfonyl-carbamoyl)-2-vinylcyclopropyl)-4-(2-(pyridin-2-yl)thieno[3,2-d]pyrimidin-4-yloxy)pyrrolidine-2-carboxamide] belongs 1 to 10 µM. To `C=C[C@H]1C[C@]1(NC(=O)[C@@H]1C[C@@H](Oc2cc(-c3ccccc3)nc3cc(OC)ccc23)CN1C(=O)[C@@H](CC(=O)N1CCCCC1)C(C)C)C(=O)NS(=O)(=O)C1CC1` [Compound 58, (2S,4R)-N-((1R,2R)-1-(cyclopropyl-sulfonylcarbamoyl)-2-vinylcyclopropyl)-1-((S)-2-isopropyl-4-oxo-4-(piperidin-1-yl)butanoyl)-4-(7-methoxy-2-phenylquinolin-4-yloxy)pyrrolidine-2-carboxamide] belongs below 1 µM; to `C=C[C@@H]1C[C@]1(NC(=O)[C@@H]1C[C@@H](NC(=O)n2c3ccccc3c3ccccc32)CN1C(=O)[C@@H](CC(=O)N1CCC(C(F)(F)F)CC1)C(C)(C)C)C(=O)NS(=O)(=O)C1CC1` [Compound 190, N-((3R,5S)-1-((S)-2-tert-butyl-4-oxo-4-(4-(trifluoromethyl)piper-idin-1-yl)butanoyl)-5-((1R,2S)-1-(cyclopropylsulfonyl-carbamoyl)-2-vinylcyclopropyl-carbamoyl)pyrrolidin-3-yl)-9H-carbazole-9-carboxamide], below 1 µM. To `C=CC1C[C@]1(NC(=O)[C@@H]1C[C@@H](Oc2cc(-c3ccccc3)nc3cc(OC)ccc23)CN1C(=O)[C@@H](CC(=O)N1CCCCC1)CC(C)C)C(=O)NS(=O)(=O)C1CC1` (stereo partly drawn) [Compound 91, (2S,4R)-N-((1R,2R)-1-(cyclopropyl-sulfonylcarbamoyl)-2-vinylcyclopropyl)-4-(7-methoxy-2-phenylquinolin-4-yloxy)-1-((R)-4-methyl-2-(2-oxo-2-(piperidin-1-yl)ethyl)pentano-yl)pyrrolidine-2-carboxamide] belongs below 1 µM; to `C=C[C@@H]1C[C@]1(NC(=O)[C@@H]1C[C@@H](OC(=O)n2c3ccccc3c3ccccc32)CN1C(=O)[C@@H](CC(=O)N1CCCCC1)C(C)(C)C)C(=O)NS(=O)(=O)C1CC1` [Compound 99, (3R,5S)-1-((S)-2-tert-butyl-4-oxo-4-(piperidin-1-yl)butanoyl)-5-((1R,2S)-1-(cyclo-propylsulfonyl-carbamoyl)-2-vinyl-cyclopropyl-carbamoyl)pyrrolidin-3-yl 9H-carbazole-9-carboxylate], below 1 µM; to `C=C[C@@H]1C[C@]1(NC(=O)[C@@H]1C[C@@H](Oc2cc(-c3ccccn3)nc3cc(OC)ccc23)CN1C(=O)[C@@H](CC(=O)N1CC2CCC1C2)C(C)(C)C)C(=O)NS(=O)(=O)C1CC1` (stereo partly drawn) [Compound 220, (2S,4R)-1-((2S)-2-(2-(2-azabi-cyclo[2.2.1]heptan-2-yl)-2-oxoethyl)-3,3-dimethylbutanoyl)-N-((1R)-1-(cyclo-propylsulfonyl-carbamoyl)-2-vinylcyclopropyl)-4-(7-methoxy-2-(pyridin-2-yl)quinolin-4-yloxy)pyrrolidine-2-carboxamide], below 1 µM.

In the case of `C=CC1CC1(NC(=O)[C@@H]1C[C@@H](Oc2cc(-c3ccccc3)nc3cc(OC)ccc23)CN1C(=O)C[C@H](C(=O)NC1CCCC1)C(C)(C)C)C(=O)NS(=O)(=O)C1CC1` (stereo partly drawn) [Compound 46], the EC50 was below 1 µM. The same measure for `C=C[C@@H]1C[C@]1(NC(=O)[C@@H]1C[C@@H](Oc2cc(-c3ccccc3)nc3cc(OC)ccc23)CN1C(=O)[C@@H](CC(=O)n1c(C2CCCCN2)nc2cc(F)ccc21)C(C)(C)C)C(=O)NS(=O)(=O)C1CC1` (stereo partly drawn) [Compound 126, (2S,4R)-1-((2S)-2-tert-butyl-4-(5-fluoro-2-(piperidin-2-yl)-1H-benzo[d]imidazol-1-yl)-4-oxobutanoyl)-N-((1R,2S)-1-(cyclo-propylsulfonyl-carbamoyl)-2-vinylcyclopropyl)-4-(7-methoxy-2-phenylquinolin-4-yloxy)pyrrolidine-2-carboxamide]: below 1 µM.
